Measured values from PubChem BioAssay (NCI).
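Values below derive from 48-hour exposures of cells grown in 96-well plates, with endpoints linearly interpolated between the two concentrations bracketing the appropriate inhibition level. At the TGI there is no net growth.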

Key:
Assay in all cases: NCI tumour cell line growth inhibition, 48 h
HL-60(TB) leukemia = tested on: HL-60(TB) leukemia
LXFL 529 NSCLC = tested on: LXFL 529 NSCLC
HOP-18 NSCLC = tested on: HOP-18 NSCLC
EKVX NSCLC = tested on: EKVX NSCLC
ACHN renal = tested on: ACHN renal
RXF 393 renal = tested on: RXF 393 renal
U251 CNS = tested on: U251 CNS
SW-620 colon = tested on: SW-620 colon
COLO 205 colon = tested on: COLO 205 colon
SNB-19 CNS = tested on: SNB-19 CNS
SK-MEL-28 melanoma = tested on: SK-MEL-28 melanoma
OVCAR-8 ovarian = tested on: OVCAR-8 ovarian
NCI-H23 lung = tested on: NCI-H23 lung
OVCAR-4 ovarian = tested on: OVCAR-4 ovarian
UACC-62 melanoma = tested on: UACC-62 melanoma
HCT-116 colon = tested on: HCT-116 colon
OVCAR-3 ovarian = tested on: OVCAR-3 ovarian
SR leukemia = tested on: SR leukemia
UO-31 renal = tested on: UO-31 renal
M19-MEL melanoma = tested on: M19-MEL melanoma

Measured: TGI

CCn1cnnc1-c1nsc2ccccc12
> 100 µM: all assays above

Cc1ccc2c(=O)c3ccccc3sc2c1
> 100 µM: all assays above
